Laboratory results published in article PMC5914176 (Journal of medicinal chemistry, 2018).
Several values for one entry are separate records, joined by “and”; a condition that tells them apart may be missing. Identical values can stand only once. Like-named read-outs stand apart in the source and are kept apart here.

Experiments:
[1] = in vitro; details: female, CD9, mouse, microsomes, three replicates
[2] = biological target: T1, DCN1-UBE2M interaction (Homo sapiens, UniProt Q96GG9); assay: biochemical; type: binding
T1 sequence (Q96GG9 whole entry): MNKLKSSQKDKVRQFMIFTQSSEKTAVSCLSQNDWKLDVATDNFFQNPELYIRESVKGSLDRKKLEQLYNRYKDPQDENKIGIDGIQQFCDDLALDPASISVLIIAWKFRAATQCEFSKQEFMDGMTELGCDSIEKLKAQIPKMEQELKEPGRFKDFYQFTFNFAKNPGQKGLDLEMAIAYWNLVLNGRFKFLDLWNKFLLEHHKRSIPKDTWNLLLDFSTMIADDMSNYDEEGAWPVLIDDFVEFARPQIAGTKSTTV

[3] = biological target: T1, DCN1-UBE2M interaction; details: previously reported potency; cited from earlier work
[4] = system: HCC95 cells; details: cited from earlier work
[5] = for adverse reactions or compound-related side effects after IV dosing: 48 h monitoring after single IV dose
[6] = Liver microsomal stability; details: for t(1/2): mouse microsomes, 0.8 μM, mean ± SD, three replicates
[7] = system: HCC95 cells; assay: Western blot for cellular neddylation and substrate levels; type: cell-based
[8] = in vivo; parameters: species or system mice
[9] = in vivo; details: mouse, iv, 1.5 mg/kg, t1/2 (IV half-life), IV 0.5, 1.0 and 1.5 mg/kg, plasma
[10] = system: HCC95 cells; details: cited from earlier work; remark: listed apart in the source
[11] = type: in vivo, mice; details: 14 days, 200 mg/kg oral QD or BID
[12] = system: DCN1/2 over remaining human DCN isoforms; details: cited from earlier work
[13] = pH 7.4, CLint, Table 1, mean ± SD
[14] = pH 7.4, CLint’, Table 2, mean ± SD
[15] = pH 7.4, CLint’, Table 3, mean ± SD
[16] = pH 7.4, CLint’, Table 5, mean ± SD
[17] = IC50, rounded values in running text
[18] = female, CD9, mouse, microsomes, pH 7.4

CC(C)(C)N1CCC(N(Cc2ccc3c(c2)OCO3)C(=O)Nc2cccc(C(F)(F)F)c2)CC1 [Compound 9]
CLint scaled at 0.8 µM [1, 13]: 26 ± 1.27 L/h/kg

CCCC(C)N1CCC(N(Cc2ccccc2)C(=O)Nc2ccc(C(C)C)cc2)CC1 (stereo not shown) [Compound 29]
CLint scaled at 0.8 µM [1, 14]: 19.4 ± 0.268 L/h/kg

CCCC(C)N1CCC(N(Cc2ccccc2)C(=O)Nc2cccc(C(C)C)c2)CC1 (stereo not shown) [Compound 23]
CLint scaled at 0.8 µM [1, 14]: 15.4 ± 1.34 L/h/kg

CCCC(C)N1CCC(N(Cc2ccccc2)C(=O)Nc2ccc(F)c(F)c2)CC1 (stereo not shown) [Compound 32]
CLint scaled at 0.8 µM [1, 15]: 18.1 ± 0.912 L/h/kg

CCCCN1CCC(N(Cc2ccccc2)C(=O)Nc2cccc(C(F)(F)F)c2F)CC1 [Compound 69]
CLint scaled at 0.8 μM [1, 16]: ≥ 30 L/h/kg

CCCCN1CCC(N(Cc2ccc3c(c2)OCO3)C(=O)Nc2cccc(C(F)(F)F)c2)CC1 [Compound 8]
CLint scaled at 0.8 µM [1, 13]: 13.2 ± 0.768 L/h/kg

CCCC(C)N1CCC(N(Cc2ccccc2)C(=O)Nc2ccc3c(c2)CCC3)CC1 (stereo not shown) [Compound 43]
CLint scaled at 0.8 μM [1, 15]: ≥ 30 L/h/kg

CCCC(C)N1CCC(N(Cc2ccccc2)C(=O)Nc2cccc(F)c2)CC1 (stereo not shown) [Compound 21]
CLint scaled at 0.8 μM [1, 14]: ≥ 30 L/h/kg

CCCC(C)N1CCC(N(Cc2ccccc2)C(=O)Nc2ccc(Br)cc2)CC1 (stereo not shown) [Compound 26]
IC50 [2, 17]: ~0.06 µM
CLint scaled at 0.8 µM [1, 14]: 8.88 ± 0.458 L/h/kg

CCCC(C)N1CCC(N(Cc2ccccc2)C(=O)Nc2cccc(C(F)(F)F)c2)CC1 (stereo not shown) [Compound 7, 1-benzyl-1-(1-(pentan-2-yl)piperidin-4-yl)-3-(3-(trifluoromethyl)phenyl)urea]
IC50 [3]: 0.06 µM
fold more potent than initial hit (compound 2) [2]: 100 fold
steady-state levels of cullin neddylation ([4]; HCC95 cells): suppresses steady-state levels of cullin neddylation
adverse reactions or compound-related side effects after IV dosing [5]: We did not observe any adverse reactions or compound-related side effects
t1/2 (IV half-life) ([5]; IV 0.5, 1.0 and 1.5 mg/kg, plasma): 8.4 to 12 min
CLint scaled at 0.8 μM [1, 13]: 9.9 ± 1.55 L/h/kg
t(1/2) ([6]; Table 1): 0.327 ± 0.010 h

CCCCN1CCC(N(Cc2ccccc2)C(=O)Nc2cc(F)cc(C(F)(F)F)c2)CC1 [Compound 47]
fold reduction in biochemical potency versus compound 7 [2]: five-fold
CLint scaled at 0.8 µM [1, 16]: 1.34 ± 0.293 L/h/kg

CCCCN1CCC(N(Cc2ccccc2)C(=O)Nc2ccc(C)c(Cl)c2)CC1 [Compound 71]
CLint scaled at 0.8 µM [1, 16]: 11.3 ± 0.87 L/h/kg

CCCCN1CCC(N(Cc2ccccc2)C(=O)Nc2cccc(C(F)(F)F)c2)CC1 [Compound 6]
CLint scaled at 0.8 µM [1, 13]: 21.7 ± 2.71 L/h/kg

CCCC(C)N1CCC(N(Cc2ccccc2)C(=O)Nc2ccc(C#N)c(C(F)(F)F)c2)CC1 (stereo not shown) [Compound 34]
CLint scaled at 0.8 µM [6, 18]: 3.68 ± 0.209 L/h/kg
CLint scaled at 0.8 μM [6, 18]: 3.6 L/h/kg

CCCN1CCC(N(Cc2cc(F)cc(C(F)(F)F)c2)C(=O)Nc2cccc(C(F)(F)F)c2)CC1 [Compound 10]
CLint scaled at 0.8 µM [1, 13]: 11.9 ± 0.599 L/h/kg

CCCC(C)N1CCC(N(Cc2ccccc2)C(=O)Nc2ccc(C(F)(F)F)cc2)CC1 (stereo not shown) [Compound 24]
CLint scaled at 0.8 µM [1, 14]: 7.5 ± 0.19 L/h/kg

CCCC(C)N1CCC(N(Cc2ccccc2)C(=O)Nc2ccc(Cl)c([N+](=O)[O-])c2)CC1 (stereo not shown) [Compound 31]
CLint scaled at 0.8 µM [1, 15]: 9.06 ± 0.612 L/h/kg

CCCC(C)N1CCC(N(Cc2ccccc2)C(=O)Nc2ccc(F)c(C(F)(F)F)c2)CC1 (stereo not shown) [Compound 35]
CLint scaled at 0.8 µM [1, 15]: 8.7 ± 0.571 L/h/kg

CCCC(C)N1CCC(N(Cc2ccccc2)C(=O)Nc2cc(Cl)ccc2F)CC1 (stereo not shown) [Compound 39]
CLint scaled at 0.8 µM [1, 15]: 13.8 ± 0.786 L/h/kg

CCCC(C)N1CCC(N(Cc2ccccc2)C(=O)Nc2cc(C(F)(F)F)ccc2F)CC1 (stereo not shown) [Compound 38]
CLint scaled at 0.8 µM [1, 15]: 4.01 ± 0.309 L/h/kg

CCCN1CCC(N(Cc2ccc3c(c2)OCO3)C(=O)Nc2cccc(C(F)(F)F)c2)CC1 [Compound 1]
CLint scaled at 0.8 μM [1, 13]: > 30 L/h/kg

CCCCN1CCC(N(Cc2ccccc2)C(=O)Nc2cccc(Cl)c2)CC1 [Compound 63]
CLint scaled at 0.8 μM [1, 16]: ≥ 30 L/h/kg

O=C(Nc1cccc(C(F)(F)F)c1)NC1CCN(Cc2ccccc2)CC1 [Compound 2]
CLint scaled at 0.8 µM [1, 13]: 5.48 ± 0.487 L/h/kg

CCCN1CCC(N(Cc2ccco2)C(=O)Nc2cccc(C(F)(F)F)c2)CC1 [Compound 3]
CLint scaled at 0.8 µM [1, 13]: 23.6 ± 3.31 L/h/kg

CCCC(C)N1CCC(N(Cc2ccccc2)C(=O)Nc2ccc(I)cc2)CC1 (stereo not shown) [Compound 27]
IC50 [2, 17]: ~0.06 µM and 0.05 µM
CLint scaled at 0.8 µM [1, 14]: 6.9 ± 0.167 L/h/kg

CCCN1CCC(N(Cc2ccccc2)C(=O)Nc2cccc(C(F)(F)F)c2)CC1 [Compound 4]
CLint scaled at 0.8 µM [1, 13]: 19.1 ± 1.78 L/h/kg

CCCCN1CCC(N(Cc2ccccc2)C(=O)Nc2ccc(F)c(Cl)c2)CC1 [Compound 72]
CLint scaled at 0.8 µM [1, 16]: 2.32 ± 0.0978 L/h/kg

CCCC(C)N1CCC(N(Cc2ccccc2)C(=O)Nc2ccc(Cl)cc2)CC1 (stereo not shown) [Compound 25]
IC50 ([2]; IC50): 0.1 µM
CLint scaled at 0.8 µM [1, 14]: 9.36 ± 0.642 L/h/kg

CCCC(C)N1CCC(N(Cc2ccccc2)C(=O)Nc2ccc(C)cc2)CC1 (stereo not shown) [Compound 28]
CLint scaled at 0.8 µM [1, 14]: 21.4 ± 1.91 L/h/kg

CCCC(C)N1CCC(N(Cc2ccccc2)C(=O)Nc2ccc(C)c(F)c2)CC1 (stereo not shown) [Compound 33]
CLint scaled at 0.8 µM [1, 15]: 22.9 ± 1.91 L/h/kg

O=C(Nc1cccc(C(F)(F)F)c1)N(Cc1ccccc1)C1CCN(CC2CC2)CC1 [Compound 5]
CLint scaled at 0.8 μM [1, 13]: > 30 L/h/kg

CCCCN1CCC(N(Cc2ccccc2)C(=O)Nc2ccc(Cl)c(Cl)c2)CC1 [Compound 67, 1-benzyl-1-(1-butylpiperidin-4-yl)-3-(3,4-dichlorophenyl)urea]
gross substrate stabilization ([7]; HCC95): does not elicit gross substrate stabilization
steady-state levels of neddylated CUL1 and CUL3 ([7]; HCC95, 48 hours, dosing at T = 0 and T = 24 hr): inhibits steady-state levels of neddylated CUL1 and CUL3 in a dose-dependent manner
levels of CUL1/CUL3 substrates NRF2 and p27 ([7]; HCC95, 48 hours, longer exposures): dose-dependent increase
adverse reaction after oral administration ([8]; 48 h monitoring, any dose tested): did not cause a significant adverse reaction at any dose tested
half-life ([8]; mouse, in vivo, po, 200 mg/kg): 3 to 5 h
half-life [9]: 3 to 4 h
fold lower clearance in mouse microsomes than compound 7: six-fold
steady-state levels of neddylated cullins (selectivity among cullins) ([4]; HCC95): selectively reduces steady-state levels of neddylated CUL1 and CUL3 while CUL2, CUL4A, and CUL5 are relatively unaffected
anchorage-independent growth [10]: inhibits the anchorage-independent growth of HCC95 cells
adverse reactions or compound-related side effects, repeat dosing [11]: no adverse reactions or compound-related side effects were observed
adverse reactions or compound-related side effects after IV dosing [5]: failed to induce any measureable adverse reactions
CLint scaled at 0.8 μM [1, 16]: 1.54 ± 0.245 L/h/kg
selectivity for DCN1/2 over other DCN isoforms [12]: high level of selectivity for inhibition of DCN1/2 over the highly homologous remaining human DCN isoforms
t(1/2) ([6]; Table 5): 2.11 ± 0.336 h
bioavailability predicted from in vitro clearance (Fin vitro) ([6]; calculated by 1 - CL/Qh): 78%

CCCC(C)N1CCC(N(Cc2ccccc2)C(=O)Nc2ccc3ncsc3c2)CC1 (stereo not shown) [Compound 42]
CLint scaled at 0.8 µM [1, 15]: 14.4 ± 1.44 L/h/kg

CCCC(C)N1CCC(N(Cc2ccccc2)C(=O)Nc2cc(F)cc(C(F)(F)F)c2)CC1 (stereo not shown) [Compound 36]
CLint scaled at 0.8 µM [1, 15]: 17.5 ± 1.34 L/h/kg

CCCC(C)N1CCC(N(Cc2ccccc2)C(=O)Nc2ccc(C(F)(F)F)nc2C)CC1 (stereo not shown) [Compound 41]
CLint scaled at 0.8 μM [1, 15]: < 0.81 L/h/kg

CCCCN1CCC(N(Cc2ccccc2)C(=O)Nc2cccc(C#N)c2)CC1 [Compound 66]
CLint scaled at 0.8 µM [1, 16]: 20.9 ± 1.35 L/h/kg

CCCCN1CCC(N(Cc2ccccc2)C(=O)Nc2cccc(C)c2)CC1 [Compound 64]
CLint scaled at 0.8 µM [1, 16]: 18.3 ± 0.241 L/h/kg

CCCCN1CCC(N(Cc2ccccc2)C(=O)Nc2ccc(F)c(C(F)(F)F)c2)CC1 [Compound 70]
CLint scaled at 0.8 µM [1, 16]: 1.67 ± 0.163 L/h/kg

CCCC(C)N1CCC(N(Cc2ccccc2)C(=O)Nc2cccc(Cl)c2)CC1 (stereo not shown) [Compound 22]
CLint scaled at 0.8 μM [1, 14]: ≥ 30 L/h/kg
